Test systems include SNB-19 CNS; HS 578T breast; NCI/ADR-RES ovarian; CCRF-CEM leukemia; K-562 leukemia; UO-31 renal; BT-549 breast; RXF 393 renal; SF-539 CNS; HOP-62 NSCLC.
Experiment in all cases: DTP human tumour cell line panel, 48 h

Several values for one entry are separate records, joined by “and”; a condition that tells them apart may be missing. Equal entries are not always repeated.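 Cultured in 96-well plates, cells were exposed to test compound for 48 hours across five concentrations. Abbreviation: GI50, concentration required for 50% inhibition of growth. TGI: total growth inhibition.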 Bounds are passed on as bounds.

For `CNC(=O)Oc1cc(C)c(/C=C/c2cncc(C(=O)NC)c2)c(C)c1`, the GI50 – broadly, the concentration that inhibits growth by half – in the assay on SNB-19 CNS is above 25 µM; in the assay with HS 578T breast it was 12.9 µM; with NCI/ADR-RES ovarian, above 25 µM; in the assay with CCRF-CEM leukemia it was 24.8 µM; in the assay on K-562 leukemia it was 15.3 µM; with UO-31 renal it was 13.3 µM. Also, the GI50 with BT-549 breast is above 25 µM; in the assay with RXF 393 renal it was 14.1 µM; with SF-539 CNS, above 21.6 µM; in the assay on HOP-62 NSCLC, above 22.3 µM. Also, the TGI with SNB-19 CNS, in the assay on HS 578T breast, in the assay on NCI/ADR-RES ovarian, in the assay with CCRF-CEM leukemia, in the assay on K-562 leukemia and with UO-31 renal was above 25 µM each time. Further, the TGI in the assay on BT-549 breast, in the assay with RXF 393 renal, in the assay with SF-539 CNS and in the assay on HOP-62 NSCLC was above 25 µM throughout.
Consider `Cc1cc(Oc2ccc3nc(COc4ccc(CC5SC(=O)NC5=O)cc4)n(C)c3c2)cc(C)c1N` (stereo not given), for which the GI50 in the assay on SNB-19 CNS was 42.2 µM; with HS 578T breast, above 57.3 µM; in the assay with NCI/ADR-RES ovarian it was 32.5 µM; with CCRF-CEM leukemia it was 30.9 µM; in the assay with K-562 leukemia it was 35.4 µM; with UO-31 renal, 24.8 µM. Moreover, the GI50 in the assay with BT-549 breast was 24.2 µM; in the assay with RXF 393 renal, 50.8 µM; in the assay on SF-539 CNS it was 43.3 µM; with HOP-62 NSCLC, 48.7 µM. For the same compound, the TGI (in general, the concentration giving total growth inhibition) with SNB-19 CNS was above 100 µM; with HS 578T breast it was above 100 µM; with NCI/ADR-RES ovarian, above 100 µM; with CCRF-CEM leukemia, above 100 µM; in the assay with K-562 leukemia it was above 100 µM; in the assay on UO-31 renal, above 81.6 µM. The TGI with BT-549 breast was above 79.2 µM; with RXF 393 renal, above 100 µM; with SF-539 CNS it was above 83.4 µM; with HOP-62 NSCLC, above 100 µM.
In the case of `Cc1cc(O)cc(C)c1/C=C/c1cncc(-c2nn[nH]n2)c1`, the GI50 in the assay with SNB-19 CNS, in the assay on HS 578T breast, in the assay with NCI/ADR-RES ovarian, with CCRF-CEM leukemia, with K-562 leukemia and in the assay with UO-31 renal was above 25 µM in each case. The GI50 with BT-549 breast, in the assay with RXF 393 renal, in the assay on SF-539 CNS and with HOP-62 NSCLC was above 25 µM each time. Further, the TGI in the assay with SNB-19 CNS, in the assay on HS 578T breast, with NCI/ADR-RES ovarian, in the assay on CCRF-CEM leukemia, in the assay on K-562 leukemia and in the assay with UO-31 renal was above 25 µM in each case. Further, the TGI in the assay with BT-549 breast, in the assay with RXF 393 renal, in the assay on SF-539 CNS and in the assay on HOP-62 NSCLC was above 25 µM each time.
In the case of `CCOC(=O)/C(=C(/C)NCC(C)C)c1cc(O)c(O)c2c(C)cc(=O)[nH]c12`, the GI50 in the assay on SNB-19 CNS was 13.8 µM; in the assay on HS 578T breast, 13.4 µM; in the assay on NCI/ADR-RES ovarian, 2.42 µM; in the assay with CCRF-CEM leukemia it was 1.4 µM; in the assay with K-562 leukemia, 6.8 µM; with UO-31 renal, 46.1 µM. The GI50 is 6.22 µM in the assay with BT-549 breast, 1.18 µM with RXF 393 renal, 5.52 µM in the assay on SF-539 CNS and 10.3 µM in the assay on HOP-62 NSCLC. Also, the TGI is above 100 µM in the assay on SNB-19 CNS; 57.3 µM in the assay on HS 578T breast; 95.7 µM in the assay with NCI/ADR-RES ovarian; 55.5 µM with CCRF-CEM leukemia; above 100 µM with K-562 leukemia; above 100 µM with UO-31 renal. The concentration for total growth inhibition (TGI) with BT-549 breast worked out at 66.7 µM; in the assay with RXF 393 renal, 20.4 µM; in the assay on SF-539 CNS, 85.1 µM; with HOP-62 NSCLC it was 37 µM.
With `CCS(=O)(=O)Nc1cccc(Nc2c3cccc(C)c3nc3c(C)cccc23)c1OC`, the GI50 in the assay with SNB-19 CNS is 0.572 µM; in the assay on HS 578T breast, 5.69 µM; with NCI/ADR-RES ovarian it was 3.23 µM; with CCRF-CEM leukemia, 0.264 µM; in the assay on K-562 leukemia, 1.55 µM; in the assay on UO-31 renal, 0.393 µM. The GI50 was 2.54 µM in the assay on BT-549 breast, 1.98 µM in the assay on RXF 393 renal, 0.708 µM in the assay with SF-539 CNS and 0.555 µM with HOP-62 NSCLC. Also, the TGI was above 88.3 µM in the assay with SNB-19 CNS; 44.8 µM with HS 578T breast; 60.2 µM in the assay with NCI/ADR-RES ovarian; above 100 µM with CCRF-CEM leukemia; above 45.3 µM with K-562 leukemia; 26 µM with UO-31 renal. In addition, the TGI is 25.1 µM with BT-549 breast, 13.2 µM with RXF 393 renal, 6.23 µM in the assay on SF-539 CNS and above 29.3 µM with HOP-62 NSCLC.
Regarding `N#CS.N=C=S.N=C=S.[Cu+2].[NH2-].[NH2-].[NH2-].[NH2-].c1ccc2ncccc2c1`, the GI50 in the assay on SNB-19 CNS was 18.1 µM; in the assay with HS 578T breast, 29.4 µM; with NCI/ADR-RES ovarian, above 100 µM; in the assay on CCRF-CEM leukemia, 24.3 µM; in the assay on K-562 leukemia it was above 100 µM; in the assay on UO-31 renal, 60.7 µM. The GI50 was above 100 µM in the assay with BT-549 breast, 25.5 µM in the assay with RXF 393 renal, above 100 µM in the assay with SF-539 CNS and 36.9 µM with HOP-62 NSCLC. For the same compound, the TGI with SNB-19 CNS is 32.9 µM; in the assay with HS 578T breast it was above 100 µM; in the assay with NCI/ADR-RES ovarian, above 100 µM; in the assay on CCRF-CEM leukemia, 57.5 µM; with K-562 leukemia it was above 100 µM; in the assay on UO-31 renal it was above 100 µM. Moreover, the TGI was above 100 µM in the assay on BT-549 breast, 44 µM with RXF 393 renal, above 100 µM in the assay with SF-539 CNS and above 100 µM in the assay on HOP-62 NSCLC.
In the case of `O=c1c2ccccc2c2ccccc2c(=O)n1Cc1ccc2c(c1)OCO2`, the TGI is above 100 µM in the assay on SNB-19 CNS; above 100 µM in the assay with HS 578T breast; above 75.7 µM in the assay with NCI/ADR-RES ovarian; 93.2 µM in the assay with CCRF-CEM leukemia; above 28 µM with K-562 leukemia; above 100 µM in the assay with UO-31 renal. Moreover, the TGI in the assay with BT-549 breast was 88.7 µM; with RXF 393 renal, above 84.2 µM; with SF-539 CNS, above 94.5 µM; in the assay on HOP-62 NSCLC, above 100 µM.
Regarding `CCN(CC)CCNc1cc(-c2cccc(OC(F)(F)F)c2)nc2ccc(N3CCCC3)cc12`, the GI50 is 1.75 µM and 1.84 µM and 1.98 µM with SNB-19 CNS; 1.59 µM and 1.87 µM and 2.78 µM in the assay with HS 578T breast; 1.65 µM and 1.72 µM and 2.18 µM with NCI/ADR-RES ovarian; 1.57 µM and 2.19 µM and 2.8 µM in the assay with CCRF-CEM leukemia; 1.36 µM and 1.8 µM and 2.18 µM in the assay on K-562 leukemia; 1.23 µM and 1.35 µM and 1.46 µM in the assay on UO-31 renal. The GI50 was 1.6 µM and 1.83 µM and 1.85 µM with BT-549 breast; 1.51 µM and 1.5 µM and 1.7 µM in the assay with RXF 393 renal; 1.68 µM and 1.74 µM and 1.79 µM with SF-539 CNS; 1.52 µM and 1.75 µM and 1.88 µM in the assay on HOP-62 NSCLC. Moreover, the TGI is 3.4 µM and 3.31 µM and 3.8 µM with SNB-19 CNS; 3.52 µM and 4.04 µM and 13 µM with HS 578T breast; 3.19 µM and 3.3 µM and 4.53 µM in the assay on NCI/ADR-RES ovarian; 4.2 µM and 6.84 µM and 10.4 µM in the assay with CCRF-CEM leukemia; 6.14 µM and 5.09 µM and 5.01 µM with K-562 leukemia; 2.5 µM and 2.69 µM and 2.99 µM with UO-31 renal. Moreover, the TGI in the assay with BT-549 breast was 3.11 µM and 3.47 µM and 3.57 µM; with RXF 393 renal, 3.03 µM and 3.09 µM and 4.02 µM; in the assay with SF-539 CNS, 3.2 µM and 3.32 µM and 3.36 µM; in the assay with HOP-62 NSCLC, 2.96 µM and 3.24 µM and 4 µM.

The values above are taken from PubChem BioAssay (NCI).
